Laboratory results taken from US12691100B2, “NMT inhibitor treatment of a senescence-associated disease or disorder of the liver” (Imperial College Innovations Limited, priority 2020, dated 2026).

Key:
senescent cells = assay: Senolytic activity in old mice (senescent-associated β-galactosidase staining); type: in vivo, C57BL/6J female mice; details: ~26 month female mice, 10 mg/kg i.p., versus vehicle
Procedure: Lung and liver samples frozen in optimal cutting temperature (OCT) were cryosectioned (15 μM) and frozen sections fixed in ice-cold 0.5% Glutaraldehyde (w/v, PBS) for 15 min and washed 1 mM MgCl2/PBS (pH 6.0) for 5 min. β-galactosidase activity was stained for with X-gal staining solution (1 mg ml^−1 X-gal, ThermoFisher Scientific, 5 mM K3(Fe(CN)6), 5 mM K4(Fe(CN)6)) for 18 h at 37° C. Slides were dehydrated and coverslips mounted prior to being imaged using 20× brightfield objective on Zeiss AxioScan Z.1 slide scanner. ImageJ was used to quantify staining by measuring the β-gal stained area as a percentage of the total tissue area excluding luminal spaces.

[1] = Blood markers (Vetscan) in a separate cohort of old mice; type: in vivo, female C57/BL6 mice; details: ~19 mo females, before 4th round, Compound 2 10 mg/kg, Compound 3 25 mg/kg, versus vehicle
Procedure: Blood was collected prior to each round of injection for physiological assessments. Mice were allowed to rest 4 weeks prior to being culled and organs collected for freezing in OCT, paraffin embedding and snap-freezing for RNA extraction.
(§1) For analysis of immune cell composition in whole blood, tail-vein blood was collected 2 days after last treatment. Whole blood was diluted in saline to a volume of […] and ran on a Sysmex XE2100 automated cell counter. Blood glucose levels were determined by collecting whole-blood from tail vein into heparinised tubes (Abraxis), 120-140 μL of whole-blood to be loaded onto a comprehensive diagnostic profile reagent rotor (Abraxis) and run on a VetScan VS2 Chemistry Analyzer (Abraxis: 500-7123).
Further experiments were performed on a separate cohort of old mice. […] This regimen was repeated 4 more times and blood was collected for Vetscan measurements prior to the 4th round of treatment (FIG. 19). At that stage, ~19 mo females presented elevated levels of ALT, amylase and glucose in blood when compared with young mice (FIG. 20A).

[2] = High fat diet model of nonalcoholic steatohepatitis (NASH); type: in vivo, male C57/BL6 mice; details: HFD mice, 10 mg/kg
Text: For high-fat diet experiments C57BL/6J male mice aged 8-weeks old were placed on Chow or high-fat diet (kcal 40% fat (non-trans-fat Primex Shortening), kcal 20% fructose, 2% cholesterol, D1602230i) for 4 weeks prior to first round of injections. […] Blood was collected prior to each round of injection for physiological assessments. Mice were allowed to rest 4 weeks prior to being culled and organs collected for freezing in OCT, paraffin embedding, blood collection for physiological measurements and tissue snap-freezing for RNA extraction.
as §1
Immunohistochemical staining—Slides were deparaffinised by washing slides twice in Histoclear™ for 5 min each, followed by 5 min washes in decreasing concentrations of ethanol with 100%, 75%, 50% & 25% ethanol washes before a final wash 5 min in dH2O. Heat induced epitope retrieval (HIER) was then performed in pressure cooker for 20 min using either antigen-unmasking solution, Citrate-based at pH 6.0 (VectorLab H-3300-250) or antigen-unmasking solution, Tris-based at pH 9.0 (VectorLab H-3301-250) depending on antibody manufacturers' instructions. Following HIER, slides were cooled on ice for 10 min and then washed in PBS for 5 min. For intracellular stains, sections were permeabilized with 0.2% Triton X-100 in PBS for 10 min and washed twice in PBS for 5 min. For NRAS staining in liver slides were washed in 0.1% H2O2 in PBS for 15 min followed by washing twice in PBS to reduce endogenous peroxide activity. Sections were marked using hydrophobic pen and Non-specific antigen binding was blocked by incubating slides with CAS-Block™ Histochemical reagent (ThermoFisher, 008120) for 30-45 min in a humidified chamber. Slides were then incubated with primary antibody overnight in a humidified chamber at 4° C. For experiments utilising p21 antibody, slides were incubated with primary p21 antibody (p21 [EPR18021], Abcam, 1:200) overnight in a humidified chamber at 4° C. Slides were washed twice in PBS for 5 min and incubated with secondary antibody SignalStain® Boost IHC detection reagent Mouse/Rabbit, HRP (Cell Signalling Technology, 8125) for 30-45 min. Next, slides were washed twice in PBS for 5 min and incubated for 2-10 min with SignalStain® DAB substrate kit (CST, 8059) to detect HRP signal. Signal development was stopped when visible positive cells could be detected on a microscope, by washing slides in dH2O. To counterstain DAB signal, slides were incubated for 30 s in Modified Mayer's Hematoxylin (Lillie's Modification) (DAKO), washed in dH2O, and incubated for 30 s in 0.05% Ammonium solution (PBS) followed by washing in dH2O. Prior to mounting coverslips with VectaMount aqueous mounting media (VectorLab, H-5501-60) slides were dehydrated by washing 1 min in 75% Ethanol, 5 min in 100% Ethanol and 5 min in Histoclear®.
Oil Red O staining for lipids was carried out on liver tissue in OCT was snap-frozen in liquid N2 and cryosectioned (15 μM). Sections were equilibrated to RT for 10 min and then stained with 0.5% Oil Red O solution (w/v, in isopropanol, Sigma, O1391) for 5 min, rinsed in tap water and counterstained with Mayer's hematoxylin for 30 s. Then sections were again rinsed in tap water for 30 min and coverslips mounted. Images were acquired on Zeiss AxioScan Z.1 and ImageJ quantification of Oil-red stain area relative to background tissue area performed for 3 fields per section. […]

Structure (SMILES): Cc1c(NS(=O)(=O)c2c(Cl)cc(-c3ccnc(N4CCNCC4)c3)cc2Cl)c(CC(C)C)nn1C [Compound 2]
- Senescent cells in livers (senescent-associated β-galactosidase staining) (senescent cells; FIG. 17B): lower levels of senescent cells
- Senescent cells in lungs (senescent-associated β-galactosidase staining) (senescent cells; FIG. 17C): lower levels of senescent cells
- ALT in blood ([1]; FIG. 20A): lower level
- Amylase in blood ([1]; FIG. 20B): lower level
- Glucose in blood ([1]; FIG. 20C): lower level
- Liver fibrosis (Sirius red staining) ([2]; FIG. 23): normalized
- p21^CIP1-positive hepatocytes in the liver ([2]; FIG. 24A): reduction of p21^CIP1-positive hepatocytes
- Lipid accumulation (steatosis) in liver ([2]; FIG. 24D): reduction in this lipid accumulation
- Transcriptional signatures of collagen formation in liver ([2]; GSEA, FIG. 24E): downregulation
- Transcriptional signature of Fridman senescence in liver ([2]; GSEA, FIGS. 24B-C): downregulation
- Transcriptional signature of senescence-associated secretory phenotype in liver ([2]; GSEA, FIGS. 24B-C): downregulation
- Col1a1 mRNA in liver ([2]; RT-qPCR, FIGS. 24F-G): lower
- Col4a1 mRNA in liver ([2]; RT-qPCR, FIGS. 24F-G): lower
- ALP in blood ([2]; before 3rd round, FIGS. 22B-D): normalised
- ALT in blood ([2]; before 3rd round, FIGS. 22B-D): normalised
- Albumin in blood ([2]; before 3rd round, FIGS. 22B-D): normalised
- suPAR in blood ([2]; before 3rd round, versus vehicle, FIG. 22A): lower levels of suPAR
